These compounds were tested on human peripheral blood mononuclear cells (PBMC) (assay: PBMC cytotoxicity assay (CellTiter-Glo)). Conditions: cytotoxicity in stimulated PBMC, recorded as pCC50.
Format: cell-based
Method: (§1) Compounds of the present invention were tested via high-throughput cellular assays utilizing detection of kynurenine via mass spectrometry and cytotoxicity as end-points. […] Compounds with IDO1 inhibitory properties decreased the amount of kynurenine produced by the cells via the tryptophan catabolic pathway. Cellular toxicity due to the effect of compound treatment was measured using CellTiter-Glo® reagent (CTG) (Promega Corporation, Madison, Wis.), which is based on luminescent detection of ATP, an indicator of metabolically active cells.
(§2) In preparation for the assays, test compounds were serially diluted 3-fold in DMSO from a typical top concentration of 1 mM or 5 mM and plated at 0.5 μL in 384-well, polystyrene, clear bottom, tissue culture treated plates with lids (Greiner Bio-One, Kremsmünster, Austria) to generate 11-point dose response curves. Low control wells (0% kynurenine or 100% cytotoxicity) contained either 0.5 μL of DMSO in the presence of unstimulated (−IFN-γ/−LPS) PBMCs for the mass spectrometry assay or 0.5 μL of DMSO in the absence of cells for the cytotoxicity assay, and high control wells (100% kynurenine or 0% cytotoxicity) contained 0.5 μL of DMSO in the presence of stimulated (+IFN-γ/+LPS) PBMCs for both the mass spectrometry and cytotoxicity assays.
Frozen stocks of PBMCs were washed and recovered in RPMI 1640 medium (Thermo Fisher Scientific, Inc., Waltham, Mass.) supplemented with 10% v/v heat-inactivated fetal bovine serum (FBS) (Thermo Fisher Scientific, Inc., Waltham, Mass.), and 1× penicillin-streptomycin antibiotic solution (Thermo Fisher Scientific, Inc., Waltham, Mass.). The cells were diluted to 1,000,000 cells/mL in the supplemented RPMI 1640 medium. 50 μL of either the cell suspension, for the mass spectrometry assay, or medium alone, for the cytotoxicity assay, were added to the low control wells, on the previously prepared 384-well compound plates, resulting in 50,000 cells/well or 0 cells/well respectively. IFN-γ and LPS were added to the remaining cell suspension at final concentrations of 100 ng/ml and 50 ng/ml respectively, and 50 μL of the stimulated cells were added to all remaining wells on the 384-well compound plates. The plates, with lids, were then placed in a 37° C., 5% CO2 humidified incubator for 2 days.
(§3) Following incubation, the 384-well plates were removed from the incubator and allowed to equilibrate to room temperature for 30 minutes. For the cytotoxicity assay, CellTiter-Glo® was prepared according to the manufacturer's instructions, and 40 μL were added to each plate well. After a twenty minute incubation at room temperature, luminescence was read on an EnVision® Multilabel Reader (PerkinElmer Inc., Waltham, Mass.). For the mass spectrometry assay, 10 μL of supernatant from each well of the compound-treated plates were added to 40 μL of acetonitrile, containing 10 μM of an internal standard for normalization, in 384-well, polypropylene, V-bottom plates (Greiner Bio-One, Kremsmünster, Austria) to extract the organic analytes. Following centrifugation at 2000 rpm for 10 minutes, 10 μL from each well of the acetonitrile extraction plates were added to 90 μL of sterile, distilled H2O in 384-well, polypropylene, V-bottom plates for analysis of kynurenine and the internal standard on the RapidFire 300 (Agilent Technologies, Santa Clara, Calif.) and 4000 QTRAP MS (SCIEX, Framingham, Mass.). MS data were integrated using Agilent Technologies' RapidFire Integrator software, and data were normalized for analysis as a ratio of kynurenine to the internal standard.
For `CC(C)CN(c1ncc(C(C)CC(=O)O)cc1Nc1nnc(C2CC2)s1)C1CCOCC1` (stereo not shown) [Example 36, 3-{5-[(5-cyclopropyl-1,3,4-thiadiazol-2-yl)amino]-6-[(2-methylpropyl)(oxan-4-yl)amino]pyridin-3-yl}butanoic acid], the “PBMC_TOX PXC50” value was under 5.0. For `CC(C)CN(c1ncc([C@H](C)CC(=O)O)cc1Nc1ccc(C(F)(F)F)nn1)C1CCOCC1` [Example 66, (3R)-3-{6-[(2-methylpropyl)(oxan-4-yl)amino]-5-{[6-(trifluoromethyl)pyridazin-3-yl]amino}pyridin-3-yl}butanoic acid], the “PBMC_TOX PXC50” value was under 5.0. `CC(C)CN(c1ncc([C@H](C)CC(=O)O)cc1Nc1cnc(C#N)cn1)C1CCOCC1` [Example 67, (3R)-3-{5-[(5-cyanopyrazin-2-yl)amino]-6-[(2-methylpropyl)(oxan-4-yl)amino]pyridin-3-yl}butanoic acid] was tested, and the “PBMC_TOX PXC50” value was under 5.0. `CC(C)CN(c1ncc([C@H](C)CC(=O)O)cc1Nc1ccc(Cl)c(Cl)n1)C1CCOCC1` [Example 68, (3R)-3-{5-[(5,6-dichloropyridin-2-yl)amino]-6-[(2-methylpropyl)(oxan-4-yl)amino]pyridin-3-yl}butanoic acid] was tested, and the “PBMC_TOX PXC50” value was under 5.0. In the case of `Cc1nc(Nc2cc([C@H](C)CC(=O)O)cnc2N(CC(C)C)C2CCOCC2)ccc1Cl` [Example 69, (3R)-3-{5-[(5-chloro-6-methylpyridin-2-yl)amino]-6-[(2-methylpropyl)(oxan-4-yl)amino]pyridin-3-yl}butanoic acid], the “PBMC_TOX PXC50” value is reported as under 5.0. For `CC(C)CN(c1ncc([C@H](C)CC(=O)O)cc1Nc1ccc(Cl)c(C#N)n1)C1CCOCC1` [Example 70, (3R)-3-{5-[(5-chloro-6-cyanopyridin-2-yl)amino]-6-[(2-methylpropyl)(oxan-4-yl)amino]pyridin-3-yl}butanoic acid], the “PBMC_TOX PXC50” value was under 5.0. In the case of `CC(C)CN(CC(F)F)c1ncc([C@H](C)CC(=O)O)cc1Nc1ccc(Cl)cn1` [Example 71, (3R)-3-{5-[(5-chloropyridin-2-yl)amino]-6-[(2,2-difluoroethyl)(2-methylpropyl)amino]pyridin-3-yl}butanoic acid], the “PBMC_TOX PXC50” value is reported as under 5.0. With `CC(C)CN(CC(C)C)c1nnc(C(C)CC(=O)O)cc1Nc1nc(C(F)(F)F)ns1` (stereo not shown) [Example 72, 3-{6-[bis(2-methylpropyl)amino]-5-{[3-(trifluoromethyl)-1,2,4-thiadiazol-5-yl]amino}pyridazin-3-yl}butanoic acid] the “PBMC_TOX PXC50” value was under 5.0. With `CC(C)CN(c1ncc([C@H](C)CC(=O)O)cc1Nc1ccc(C(N)=O)nn1)C1CCOCC1` [Example 73, (3R)-3-{5-[(6-carbamoylpyridazin-3-yl)amino]-6-[(2-methylpropyl)(oxan-4-yl)amino]pyridin-3-yl}butanoic acid] the “PBMC_TOX PXC50” value was under 5.0. With `CC(C)CN(c1ncc([C@H](C)CC(=O)O)cc1Nc1ccc(C#N)nn1)C1CCOCC1` [Example 74, (3R)-3-{5-[(6-cyanopyridazin-3-yl)amino]-6-[(2-methylpropyl)(oxan-4-yl)amino]pyridin-3-yl}butanoic acid] the “PBMC_TOX PXC50” value was under 5.0. For `CC(C)CN(c1ncc([C@H](C)CC(=O)O)cc1Nc1ccc(Cl)cn1)C1CC(F)(F)C1` [Example 75, (3R)-3-{5-[(5-chloropyridin-2-yl)amino]-6-[(3,3-difluorocyclobutyl)(2-methylpropyl)amino]pyridin-3-yl}butanoic acid], the “PBMC_TOX PXC50” value was under 5.0. `CC(C)CN(CCC(F)(F)F)c1ncc([C@H](C)CC(=O)O)cc1Nc1ccc(Cl)cn1` [Example 76, (3R)-3-{5-[(5-chloropyridin-2-yl)amino]-6-[(2-methylpropyl)(3,3,3-trifluoropropyl)amino]pyridin-3-yl}butanoic acid] was tested, and the “PBMC_TOX PXC50” value was under 5.0. In the case of `CC(C)CN(c1ncc([C@H](C)CC(=O)O)cc1Nc1cnc(Cl)cn1)C1CCOCC1` [Example 77, (3R)-3-{5-[(5-chloropyrazin-2-yl)amino]-6-[(2-methylpropyl)(oxan-4-yl)amino]pyridin-3-yl}butanoic acid], the “PBMC_TOX PXC50” value is reported as under 5.0. For `CC(C)CN(c1ncc([C@H](C)CC(=O)NO)cc1Nc1ccc(Cl)cn1)C1CCOCC1` [Example 78, (3R)-3-{5-[(5-chloropyridin-2-yl)amino]-6-[(2-methylpropyl)(oxan-4-yl)amino]pyridin-3-yl}-N-hydroxybutanamide], the “PBMC_TOX PXC50” value was under 5.0. For `CC(C)CN(c1ncc([C@H](C)CC(=O)NS(C)(=O)=O)cc1Nc1ccc(Cl)cn1)C1CCOCC1` [Example 79, (3R)-3-{5-[(5-chloropyridin-2-yl)amino]-6-[(2-methylpropyl)(oxan-4-yl)amino]pyridin-3-yl}-N-methanesulfonylbutanamide], the “PBMC_TOX PXC50” value was under 5.0. In the case of `CC(C)CN(c1ncc([C@H](C)CC(=O)NS(=O)(=O)N(C)C)cc1Nc1ccc(Cl)cn1)C1CCOCC1` [Example 80, (3R)-3-{5-[(5-chloropyridin-2-yl)amino]-6-[(2-methylpropyl)(oxan-4-yl)amino]pyridin-3-yl}-N-(dimethylsulfamoyl)butanamide], the “PBMC_TOX PXC50” value is reported as under 5.0. With `CC(C)CN(c1ncc([C@H](C)CC(=O)O)cc1Nc1nc(Cl)ns1)C1CC(F)(F)C1` [Example 81] the “PBMC_TOX PXC50” value was under 5.0. For `CC(C)CN(c1cnc([C@H](C)CC(=O)O)cc1Nc1ccc(Cl)cn1)C1CCOCC1` [Example 82, (3R)-3-{4-[(5-chloropyridin-2-yl)amino]-5-[(2-methylpropyl)(oxan-4-yl)amino]pyridin-2-yl}butanoic acid], the “PBMC_TOX PXC50” value was under 5.0.

The compounds below were run against indoleamine 2, 3-dioxygenase (IDO1) (Homo sapiens, UniProt P14902) (assay: IDO1 HeLa RapidFire MS Assay (kynurenine by mass spectrometry)). Conditions: HeLa cells stimulated with IFN-γ, 2 days; recorded as pIC50; read-out: IDO1 HeLa PXC50 (converted).
indoleamine 2, 3-dioxygenase (IDO1), sequence (P14902 whole entry): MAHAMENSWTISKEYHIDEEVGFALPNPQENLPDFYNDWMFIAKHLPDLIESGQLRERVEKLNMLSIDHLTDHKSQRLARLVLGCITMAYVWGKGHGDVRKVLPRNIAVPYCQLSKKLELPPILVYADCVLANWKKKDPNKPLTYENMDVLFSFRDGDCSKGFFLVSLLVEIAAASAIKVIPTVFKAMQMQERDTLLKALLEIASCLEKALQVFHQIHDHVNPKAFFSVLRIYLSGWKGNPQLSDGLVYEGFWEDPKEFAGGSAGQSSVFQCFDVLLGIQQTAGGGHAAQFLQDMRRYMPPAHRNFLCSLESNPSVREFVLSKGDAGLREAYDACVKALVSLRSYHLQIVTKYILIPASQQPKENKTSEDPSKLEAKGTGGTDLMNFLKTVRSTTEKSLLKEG
Format: cell-based
Method: IDO1 HeLa RapidFire MS Assay
as §1
as §2, with “(−IFN-γ) HeLa cells” for “(−IFN-γ/−LPS) PBMCs”, “(+IFN-γ) HeLa cells” for “(+IFN-γ/+LPS) PBMCs”
Frozen stocks of HeLa cells were washed and recovered in DMEM high glucose medium with HEPES (Thermo Fisher Scientific, Inc., Waltham, Mass.) supplemented with 10% v/v certified fetal bovine serum (FBS) (Thermo Fisher Scientific, Inc., Waltham, Mass.), and 1× penicillin-streptomycin antibiotic solution (Thermo Fisher Scientific, Inc., Waltham, Mass.). The cells were diluted to 100,000 cells/mL in the supplemented DMEM medium. 50 μL of either the cell suspension, for the mass spectrometry assay, or medium alone, for the cytotoxicity assay, were added to the low control wells, on the previously prepared 384-well compound plates, resulting in 5,000 cells/well or 0 cells/well respectively. IFN-γ was added to the remaining cell suspension at a final concentration of 10 nM, and 50 μL of the stimulated cells were added to all remaining wells on the 384-well compound plates. The plates, with lids, were then placed in a 37° C., 5% CO2 humidified incubator for 2 days.
as §3, with “instructions, and 10 μL were” for “instructions, and 40 μL were”
`CC(C)CN(c1ncc(C(C)CC(=O)O)cc1Nc1nnc(C2CC2)s1)C1CCOCC1` (stereo not shown) [Example 36, 3-{5-[(5-cyclopropyl-1,3,4-thiadiazol-2-yl)amino]-6-[(2-methylpropyl)(oxan-4-yl)amino]pyridin-3-yl}butanoic acid] gave an IC50 of 7.94 nM.

Reference: patent US10787442B2, “Modulators of indoleamine 2,3-dioxygenase” (GLAXOSMITHKLINE INTELLECTUAL PROPERTY DEVELOPMENT LIMITED, priority 2016, dated 2020)
